Data from patent publication US11420962B2, “Indene derivatives useful in treating pain and inflammation” (TARO PHARMACEUTICALS INC., priority 2018, dated 2022).

Columns and labels:
[1] = Metabolism by human liver microsomes; assay type: in vitro ADME; conditions: Table 8; 10 µM, in the presence of NADPH, 1 mg/mL protein
Outline: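 Compound at 10 μM preincubated 10 min at 37 °C with human liver microsomes (1 mg/mL protein), 100 mM Tris HCl pH 7.5; started with 1 mM NADPH, run 60 min. Percent remaining at 60 min versus 0-time by LC-MS/MS analyte/internal-standard ratio, scored in bands.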

T cells = assay: T cell proliferation (anti-CD3/anti-CD28 dynabeads, CCK-8); assay type: cell-based, mice; conditions: Table 4, mouse T cells, 72 hours after dynabeads, read-out: Scoring (IC50, cell proliferation)
Method: Spleens were obtained from six male, CD-1 outbred mice, approximately 8 weeks old. Cells were harvested under sterile conditions by forcing each spleen though a cell filter (pore size 100 μm diameter). A homogenous cell suspension was obtained by washing the cells in fresh medium and passing cells through a smaller cell filter (pore size 70 μm).
Untouched T cells were isolated using the Pan T cell isolation kit (Miltenyi Biotech). Briefly, cells were counted and incubated with the required volume of antibody cocktail for 5 minutes at 4° C. before addition of microbeads and incubation for 10 minutes at 4° C. Labeled cells were retained in a magnetic column while unlabeled cells (T cells) passed through the column and were retained for use in the assay.
Cell viability was assessed by Trypan Blue exclusion and found to be >99% prior to transfer to plates. Isolated T cells were seeded out in 96 well plates at a density of 50,000 cells per well and allowed to incubate for 60 minutes in a humidified cell culture (37° C., 5% CO2) incubator prior to compound treatment. The media used for this assay (TexMACS, Miltenyi Biotech) was previously optimized for proliferation of T cells in serum free conditions.
Representative compounds of the invention (i.e., test compounds) were prepared as 30 mM stocks in 100% DMSO. Test compounds were initially diluted in media to yield 3 mM stocks before an additional 1:10 dilution in media was performed to yield working stocks of 300 μM (1% DMSO). Subsequent dilutions were performed in media (supplemented with 1% DMSO). When added to the assay plates (1:10 dilution), these yielded final concentrations in the assay plates of in 0.1% DMSO. The reference compound, Cyclosporin A, was prepared in an identical manner as above.
Unstimulated and Stimulated Control wells received an identical volume of TexMACS media/1% DMSO at this time, resulting in a final concentration of 0.1% DMSO across the plate. Mouse anti-CD3/anti-CD28 dynabeads were prepared (following the manufacturers' instructions) in TexMACS media and added to appropriate wells to achieve a final concentration of 1 bead per cell. Unstimulated Control wells then received an identical volume of TexMACS. Plates were centrifuged 72 hours after addition of dynabeads, (300×g for 3 minutes) to pellet the cells and 60% of the supernatant was removed to a fresh plate for analysis by ELISA. After removal of 60% of the supernatant for subsequent ELISA, cell proliferation was assessed using the CCK-8 assay.
Average response by the standard compound, cyclosporin A, was 1 uM.

Rat DRG = assay: Rat dorsal root ganglion excitability response (EFS, Ca2+ transients); assay type: cell-based; conditions: Rattus norvegicus; Table 3; electrical field stimulation, Ca5 indicator; read-out: Scoring (EC50, Rat DRG excitability)
Outline: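 Adult rat DRG cells cultured for 2 days were loaded with the Ca5 dye 1 h before electrical field stimulation under four protocols. Compounds were tested at six concentrations (typically top 30 μM, 1:3 steps, duplicate), added either 24 h before or directly before EFS. The read-out was the per-well peak/baseline fluorescence ratio change, with imaging used to check for toxicity.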

Mice (male, C57Bl/6) [2] = assay: Formalin pain assay in mice; assay type: in vivo; conditions: Table 7; formalin 2.5%, left plantar
Method: Mice (male, C57BL/6) were placed singly in a Perspex chamber for approximately 30 min on three successive days to acclimate and thereby reduce stress-induced behaviors. On the fourth day, the experimental animals received a 25 μl injection of 2.5% formalin beneath the left plantar skin using a 29-gauge syringe. […] The total time spent on flinches/licking/biting of the hind paw was recorded by visual observation for every 5 min period/interval for total observation duration of 60 min in two phases, the early phase (0-5 min) and the late phase (15-40 min). Observers were blinded to the treatment group allocation.
For test compounds, the % protection from 0-60 min was used to assess activity. Scoring for the test compounds was as follows: “A” represents a % protection of 81 to 100%, “B” represents a % protection of 61 to 80%, “C” represents a % protection of 31 to 60% and “D” represents a % protection of 0 to 30%.

[3] = tested on: Rats (male, Sprague-Dawley); assay: Rat carrageenan-induced hyperalgesia and paw edema; assay type: in vivo; conditions: 10 mg/kg, given 1 h prior to carrageenan challenge
Method: Representative compounds of the invention (i.e., test compounds) were administered PO, QD for 3 days prior to carrageenan injection, once at 1 h prior to carrageen, or at 5 min or 1 h post-challenge to rats (male, Sprague-Dawley). Rats received either an intraplantar injection of saline (sham) or carrageen (0.1 mL of a 2% solution [w/v]) in the right hind paw. Mechanical hyperalgesia (using an analgesymeter) and paw volume (using a digital plethysmometer) were measured at baseline (0 hr), 2, 4 and 6 h post carrageenan injection for all the animals. Celecoxib, given 1 h prior to carrageen challenge, was used as a reference standard.

rats (male, Wistar) [4] = assay: Complete Freund's Adjuvant (CFA) model of inflammatory pain in rats; assay type: in vivo; conditions: 30 mg/kg dose
Method: Representative compounds of the invention (i.e., test compounds) were tested in this model of inflammatory pain. The rats (male, Wistar) were acclimatized to the instruments (plantar test surface and dynamic plantar aesthesiometer) on two consecutive days prior to the initiation of the study. On Day 0, basal paw withdrawal latency and paw withdrawal threshold were taken and animals were randomized to different groups. Complete Freund's Adjuvant (CFA) at 1 mg/mL (0.1 mL) was injected into the plantar surface of right hind paw. Test compounds (3 or 30 mg/kg) were administered PO, twice (Day 0 and Day 1) or once, on Day 1 (24 h after CFA). Thermal hyperalgesia and mechanical allodynia were assessed at 0 (baseline), 1, 3 and 6 h after administration of the test compound on Day 1. Diclofenac was used as a reference compound, given once on Day 1.

male Sprague-Dawley rats = assay: Rat chronic prostatitis/chronic pelvic pain (carrageenan); assay type: in vivo; conditions: 300 mg/kg
Method: Representative compounds of the invention (i.e., test compounds) were administered for 11 days by oral gavage in 0.9% saline (3, 10 or 30 mg/kg QD; 5 mL/kg dose volume) to male Sprague-Dawley rats. Carrageenan-mediated chronic prostatitis/chronic pelvic pain (CP/CPPS) established in rats (10 per group) by administration of an intraprostatic injection of carrageenan (˜12.5 μL/lobe of a 30 mg/mL solution) into both ventral prostate lobes, on Day 0. Referred mechanical sensitivity was measured on Days 0, 1, 3 and 7, 2 hours after test compound, or vehicle (saline) administration, by applying 6 von Frey filaments with increasing forces of 0.16-2 g to the scrotal skin area, 3 times each for 1-2 seconds, with a 5-second interval between applications. Responses were scored (zero-no response; one-reaction of the animal, two-jump, and three-licking the site) and expressed as the nociceptive threshold for each day of assessment. Ibuprofen was used as a reference standard.
According to the above assay, Compound Ia-1 restored nociceptive threshold to 65% of baseline on Day 3 at the 30 mg/kg dose as compared to the reference standard, ibuprofen (300 mg/kg), which restored the threshold to 120% of the baseline.

[5] = tested on: female Sprague-Dawley rats; assay: Cyclophosphamide-induced cystitis in rats (visceral pain); assay type: in vivo; conditions: 300 mg/kg dose
Method: Representative compounds of the invention (i.e., test compounds) were administered to female Sprague-Dawley rats, for four days by oral gavage in 0.9% saline. Two hours after the fourth dose, the rats were challenged by intraperitoneal administration of cyclophosphamide (150 mg/kg). Referred mechanical sensitivity was measured four hours later by applying a series of eight von Frey filaments to the lower abdomen, three times each for 1-2 seconds with a 5 second interval between applications. Responses were scored (zero-no response; one-response, two-response and change of position, and three-response, change of position and licking the site or vocalization), totaled and the percent of maximal possible nociceptive score calculated. Ibuprofen was used as a reference standard.

Mice (male, C57Bl/6) [6] = assay: Bleomycin lung fibrosis; assay type: in vivo
From the text: Mice (male, C57BL/6) were randomized into treatment groups and fibrosis was induced by intratracheal administration of bleomycin. Treatment with representative compounds of the invention (i.e., test compounds) or reference standard (pirfenidone) was initiated on Day −1 and administered daily unto Day 7 or Day 21. For groups undergoing bronchoalveolar lavage (BAL), the trachea was cannulated and infused with ice cold Hank's Balanced Salt Solution (HBSS, pH 7.2). The collected lavage fluid was analyzed for cell numbers (total and differential counts) and levels of soluble TGFβ and collagen. For other groups, the lungs were either snap-frozen or formalin-fixed for further analyses.

[7] = tested on: Rats (male, Sprague-Dawley); assay: TNBS colitis assay in rats; assay type: in vivo; conditions: 10 mg/kg dose
Method: TNBS Colitis Assay of Representative Compounds in Rats Rats (male, Sprague-Dawley) were anaesthetized and a solution of TNBS (48 mg/kg) in ethanol, was instilled intra-rectally to induce colitis, 1 h after oral dosing of representative compounds of the invention (i.e., test compounds). Test compounds were dosed PO, QD for 7 days, using prednisolone as a reference standard. […] On Day 7, rats were euthanized and the colon was evaluated for length, weight, wall thickness, ulcer number and length and for the presence of adhesions and strictures. A colonic score was calculated based on the severity of the colonic parameters.

[8] = tested on: Rats (male, Sprague-Dawley); assay: Spinal nerve ligation (neuropathic pain); assay type: in vivo; conditions: 10 mg/kg
From the text: Rats (male, Sprague-Dawley) were anaesthetized and placed in a prone position and the left paraspinal muscles were separated from the spinous processes at the L6-S2 levels. The L6 transverse process was carefully removed to visually identify the L4-L6 spinal nerves. The left L5 spinal nerves were isolated and tightly ligated with 6-0 silk thread. The skin was sutured to close the open tissue and animals were allowed to recover for 1 week before pain assessment. Basal readings for mechanical allodynia and thermal hyperalgesia were performed using a dynamic plantar aesthesiometer and plantar test surface, respectively, before surgery. On Day 7 following surgery, mechanical allodynia and thermal hyperalgesia were assessed and animals were randomized into treatment groups based on these baseline readings. […] Thermal hyperalgesia and mechanical allodynia were tested at 0, 60 and 120 minutes post administration of compounds on Days 7 and 14.

rats (male, Wistar) [9] = assay: Rat monosodium iodoacetate-induced osteoarthritis; assay type: in vivo
Method: Representative compounds of the invention (i.e., test compounds) were administered to rats (male, Wistar) PO, QD, at 3 or 30 mg/kg, starting on Day 0 through to Day 21 of the study. Osteoarthritis was modeled by intra-articular injection of 3 mg of monosodium iodoacetate (MIA) in the right knee. Knee swelling, paw withdrawal threshold (mechanical allodynia) and the difference in weight bearing were measured on Day 0 (pre-induction) and on Days 3, 7, 14 and 21 post-MIA injection. Tramadol was used as a reference standard.

## C=C1CC[C@H]2[C@H](CNCc3ccc4c(c3)OC(F)(F)O4)[C@@H]([C@@]3(C)Cc4cn[nH]c4C[C@@H]3CO)CC[C@]12C [Ia-3, ((5R,6S)-5-((3aS,4R,5S,7aS)-4-((((2,2-difluorobenzo[d][1,3]dioxol-5-yl)methyl)amino)methyl)-7a-methyl-1-methyleneoctahydro-1H-inden-5-yl)-5-methyl-4,5,6,7-tetrahydro-1H-indazol-6-yl)methanol]
[1]
  Scoring (% of drug remaining after 60 minutes, PDR60): D (a PDR^60 of 0 to 30%)
T cells
  IC50: < 2 µM
Rat DRG
  EC50: 2 to 6 µM

## CC(C)CCC[C@@H](C)[C@H]1CC[C@H]2[C@H](CN)[C@@H]([C@@]3(C)Cc4cn[nH]c4C[C@@H]3CO)CC[C@]12C [Ia-6, ((5R,6S)-5-((1R,3aS,4S,5S,7aR)-4-(aminomethyl)-7a-methyl-1-((R)-6-methylheptan-2-yl)octahydro-1H-inden-5-yl)-5-methyl-4,5,6,7-tetrahydro-1H-indazol-6-yl)methanol]
Mice (male, C57Bl/6) [2]
  Scoring (% protection from 0-60 min): C (a % protection of 31 to 60%)
[1]
  Scoring (% of drug remaining after 60 minutes, PDR60): A (a PDR^60 of 81 to 100%)
T cells
  IC50: < 2 µM
Rat DRG
  EC50: 6 to 15 µM

## C=C1CC[C@H]2[C@H](CN)[C@@H]([C@@]3(C)Cc4c(C)n[nH]c4C[C@@H]3CO)CC[C@]12C [Ia-32, ((5R,6S)-5-((3aS,4R,5S,7aS)-4-(aminomethyl)-7a-methyl-1-methyleneoctahydro-1H-inden-5-yl)-3,5-dimethyl-4,5,6,7-tetrahydro-1H-indazol-6-yl)methanol]
Mice (male, C57Bl/6) [2]
  Scoring (% protection from 0-60 min): C (a % protection of 31 to 60%)
[1]
  Scoring (% of drug remaining after 60 minutes, PDR60): B (a PDR^60 of 61 to 80%)
T cells
  IC50: 6 to 15 µM
Rat DRG
  EC50: > 15 µM

## Cc1ccc(-c2cc(C(F)(F)F)nn2-c2ccc(S(N)(=O)=O)cc2)cc1 [celecoxib, reference compound]
[3]
  increase in the paw withdrawal threshold: 59%

## O=C(O)Cc1ccccc1Nc1c(Cl)cccc1Cl [diclofenac, reference compound]
Rats (male, Wistar) [4]
  increase in the paw withdrawal threshold: 62%

## CC(C)Cc1ccc(C(C)C(=O)O)cc1 (stereo not drawn) [ibuprofen, reference compound]
Male Sprague-Dawley rats
  nociceptive threshold restored, % of the baseline: 120%
[5]
  nociceptive threshold, % of baseline levels: 123%

## Cc1ccc(=O)n(-c2ccccc2)c1 [pirfenidone, reference compound]
Mice (male, C57Bl/6) [6]; Day 7, 100 mg/kg dose
  reduction in BAL macrophages: 30%
Mice (male, C57Bl/6) [6]; Day 14, 100 mg/kg dose
  reduction in fibrosis: 46%

## C[C@]12C=CC(=O)C=C1CC[C@@H]1[C@@H]2[C@@H](O)C[C@@]2(C)[C@H]1CC[C@]2(O)C(=O)CO [prednisolone, reference compound]
[7]
  reduction of the colonic score: 68%

## COc1cccc(C2(O)CCCCC2CN(C)C)c1 (stereo not drawn) [tramadol, reference compound]
[8]
  overall increase in paw withdrawal threshold as compared to the vehicle: 77%
Rats (male, Wistar) [9]; 10 mg/kg
  reduction difference in weight bearing as compared to the vehicle: 79%
Rats (male, Wistar) [9]; Day 3, 30 mg/kg
  reduction in knee diameter as compared to the vehicle: 11%
